Results published in patent US5990163A, “Selective modulation of processes mediated by retinoid X receptors, and compounds useful therefor” (The Salk Institute for Biological Studies, priority 1995, dated 1999).
Entries after “also recorded” stand apart in the source; their conditions may differ.

Assays:
hRXRα [1] = molecular target: T1, hRXRα (Homo sapiens, UniProt P19793); assay: Competitive ligand binding, competition for [3H]9cRA binding; conditions: 40 nM [3H]9cRA, increasing concentrations of unlabelled compound
T1 sequence (P19793 1-462): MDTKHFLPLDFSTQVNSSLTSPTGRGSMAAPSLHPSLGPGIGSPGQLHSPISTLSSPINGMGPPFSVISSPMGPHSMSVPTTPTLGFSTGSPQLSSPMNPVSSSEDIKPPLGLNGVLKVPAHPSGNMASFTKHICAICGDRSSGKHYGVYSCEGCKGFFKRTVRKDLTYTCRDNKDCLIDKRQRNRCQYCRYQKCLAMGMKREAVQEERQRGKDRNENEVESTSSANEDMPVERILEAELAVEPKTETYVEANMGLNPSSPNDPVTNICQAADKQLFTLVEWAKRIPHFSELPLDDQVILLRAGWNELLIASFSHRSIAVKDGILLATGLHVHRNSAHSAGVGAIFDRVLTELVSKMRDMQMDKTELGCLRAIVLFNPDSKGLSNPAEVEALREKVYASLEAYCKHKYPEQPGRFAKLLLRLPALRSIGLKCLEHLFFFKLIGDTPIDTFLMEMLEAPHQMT
Protocol: Binding analysis was performed as described by Boehm et al., in J. Med. Chem. 37:2930-2941 (1994). Compounds used in these studies were prepared according to Wecksler and Norman (Anal. Biochem. 92:314-323 (1979).

hRXRα [2] = molecular target: T1, hRXRα; assay: Cotransfection assay in Schneider cells, RXR expression plasmid and ADH-CRBPII-LUC luciferase reporter; assay type: cell-based; conditions: for activation of RXR (transcription from the reporter construct), in words: Schneider cells, ADH-CRBPII-LUC
Protocol: Candidate ligands were initially tested in Schneider cells cotransfected with an RXR expression plasmid and a luciferase reporter plasmid containing an RXR specific response element.
Cell lysates were then assayed for luciferase activity, which is expressed as relative light units (RLU) and represents the mean of triplicate assays (±SEM) normalized to β-galactosidase as an internal control. […] After 24 hours, ligand was added to the transfected cells. Thirty six hours later, the cells were harvested and extracts prepared and assayed for enzyme activity as described by Heyman et al., supra, and Clayton, supra. Luciferase values were normalized for transfection and harvesting efficiency by measuring β-galactosidase activity, and the results reported as average relative light units (RLU) for at least two replicates.

[3] = previous studies (Quistad et al.); a major product is methoprene acid; cited from earlier work
GAL4-hRXRα = molecular target: T2, GAL4-hRXRα (Homo sapiens, UniProt P19793); assay: Cotransfection with GAL4 chimeric receptor, TK-MH100×4-LUC reporter in CV-1 cells; assay type: cell-based; conditions: 10^-5 M ligand
T2 construct: CMX plasmid, CV-1 cells, TK-MH100x4-LUC
T2 sequence (P19793 203-462): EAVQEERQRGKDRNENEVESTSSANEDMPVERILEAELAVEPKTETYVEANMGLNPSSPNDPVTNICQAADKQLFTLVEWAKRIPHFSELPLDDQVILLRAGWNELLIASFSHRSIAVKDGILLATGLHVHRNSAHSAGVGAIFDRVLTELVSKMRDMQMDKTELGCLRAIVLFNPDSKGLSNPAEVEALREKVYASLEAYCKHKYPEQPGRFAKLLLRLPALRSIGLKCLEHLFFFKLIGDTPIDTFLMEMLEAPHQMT
Excerpt: (§1) Thus, CV-1 cells were cotransfected with the expression plasmid CMX-GAL4-hRXRα, CMX-GAL4-hRARα, CMX-GAL4-RARβ or CMX-GAL4-RARγ and the reporter plasmid TK-MH100×4-LUC. The constructs consisted of the GAL4 DNA binding domain (amino acids 1-147; see Sadowski and Ptashne in Nucl. Acids Res. 17:7539 (1989)) ligated in frame to the ligand binding and C-terminal activation domains of hRARα (amino acids 203-462; see Giguere et al., in Nature 330:624 (1987), hRARβ (amino acids 178-448; see Brand et al., in Nature 332:850 (1988), RARγ (amino acids 187-454; see Ishikawa et al., in Mol. Endo. 4:837 (1990) and RXRα (amino acids 203-462; see Mangelsdorf et al., in Nature 345:224 (1990). These GAL4-receptor chimeras were then introduced into CMX expression vectors (see Umesono et al., in Cell 65:1255 (1991)). The GAL4-responsive reporter plasmid, TK-MH100×4-LUC, was constructed by inserting 4 copies of the yeast UASG enhancer (i.e., MH100; see Webster et al., in Cell 52:169 (1988)) into the luciferase reporter plasmid TK-LUC. CV-1 cells seeded into 48 well culture plates were co-transfected with 80 ng of the reporter plasmid TK-Mh100×4-LUC, 50 ng of CMX-βgal expression plasmid, and 80 ng of receptor expression plasmid (either CMX-GAL4 as a control, CMX-GAL4-hRARα, CMX-GAL4-hRARβ, CMX-GAL4-hRARγ or CMX-GAL4-hRXRα). […] Cotransfections, ligand addition and luciferase assays were performed as described in Example 3.
(§2) The above-described chimeric proteins can bind to a GAL4 upstream activation sequence (UASG) in the promoter of a luciferase reporter, but can only activate transcription in the presence of the hybrid receptor's ligand. The distinct advantage of using the GAL4-receptor system, instead of the wild-type receptors and response elements, is that the GAL4-hybrids provide a sensitive and effective means for assaying receptor/ligand interactions, even in the presence of the cell's endogenous wild-type receptors.

GAL4-hRARβ = molecular target: T3, GAL4-hRARβ (Homo sapiens, UniProt P10826); assay: as above; assay type: cell-based; conditions: 10^-5 M ligand
T3 construct: CMX plasmid, CV-1 cells, TK-MH100x4-LUC
T3 sequence (P10826 185-455): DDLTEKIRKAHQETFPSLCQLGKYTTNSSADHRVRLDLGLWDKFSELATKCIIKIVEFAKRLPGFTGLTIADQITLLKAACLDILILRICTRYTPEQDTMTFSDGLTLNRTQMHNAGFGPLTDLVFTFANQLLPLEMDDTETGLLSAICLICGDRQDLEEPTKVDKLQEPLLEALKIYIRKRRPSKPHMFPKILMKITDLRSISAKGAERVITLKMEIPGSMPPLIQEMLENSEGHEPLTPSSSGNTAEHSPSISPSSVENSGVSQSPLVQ
Excerpt: as §1, §2

GAL4-hRARγ = molecular target: T4, GAL4-hRARγ (Homo sapiens, UniProt P13631); assay: as above; assay type: cell-based; conditions: 10^-5 M ligand
T4 construct: CMX plasmid, CV-1 cells, TK-MH100x4-LUC
T4 sequence (P13631 187-454): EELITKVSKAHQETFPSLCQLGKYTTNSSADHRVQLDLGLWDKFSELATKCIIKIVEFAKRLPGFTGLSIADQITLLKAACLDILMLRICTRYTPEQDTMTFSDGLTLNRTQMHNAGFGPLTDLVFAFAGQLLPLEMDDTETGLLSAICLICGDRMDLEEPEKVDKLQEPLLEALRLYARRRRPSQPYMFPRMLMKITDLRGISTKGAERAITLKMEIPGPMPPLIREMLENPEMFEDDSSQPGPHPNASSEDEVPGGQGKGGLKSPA
Excerpt: as §1, §2

GAL4-hRARα = molecular target: T5, GAL4-hRARα (Homo sapiens, UniProt P10276); assay: as above; assay type: cell-based; conditions: 10^-5 M ligand
T5 construct: CMX plasmid, CV-1 cells, TK-MH100x4-LUC
T5 sequence (P10276 203-462): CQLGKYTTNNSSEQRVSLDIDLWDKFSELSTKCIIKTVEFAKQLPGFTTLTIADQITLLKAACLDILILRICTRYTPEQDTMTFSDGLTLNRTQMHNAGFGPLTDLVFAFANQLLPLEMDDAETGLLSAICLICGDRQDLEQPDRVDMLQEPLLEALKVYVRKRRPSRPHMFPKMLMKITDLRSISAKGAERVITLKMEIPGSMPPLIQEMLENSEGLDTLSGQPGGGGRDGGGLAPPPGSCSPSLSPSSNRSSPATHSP
Excerpt: as §1, §2

RXR-alpha = assay: Expression of genes under the control of regulatory elements of apolipoprotein AI; assay type: cell-based
mouse RXRα = assay: Transactivation dose response, CRBPII-LUC reporter in Schneider and CV-1 cells; assay type: cell-based; conditions: Schneider cells and CV-1 cells
Protocol: (§3) Cell lysates were then assayed for luciferase activity, which is expressed as relative light units (RLU) and represents the mean of triplicate assays (±SEM) normalized to β-galactosidase as an internal control. Thus, Schneider cells in 6-well culture plates were co-transfected with 0.5 μg ADH-CRBPII-LUC, 0.5 μg A5C-βgal and 1 μg of receptor plasmid (either A5C-mRXRα, A5C-mRXRβ, A5C-mRXRγ or A5C-hRXRα) by the CaPO4 precipitation method, as described by Heyman et al., in Cell 68:397 (1992) and Clayton in Aspects of Terpenoid Chemistry and Biology, T. W. Goodwin, ed. (Academic Press, London) pp. 1-23 (1971). After 24 hours, ligand was added to the transfected cells. Thirty six hours later, the cells were harvested and extracts prepared and assayed for enzyme activity as described by Heyman et al., supra, and Clayton, supra. Luciferase values were normalized for transfection and harvesting efficiency by measuring β-galactosidase activity, and the results reported as average relative light units (RLU) for at least two replicates.
(§4) To further test the ability of methoprene acid to function as an RXR ligand, the transactivation properties of methoprene on all three RXR subtypes was investigated. FIG. 3 presents the dose responses of the three RXR subtypes to methoprene acid in insect Schneider cells (FIG. 3A), or mammalian CV-1 cells (FIG. 3B) cotransfected with expression plasmids for mouse RXRα, RXRβ, or RXRγ and the reporter plasmid ADH-CRBPII-LUC (for Schneider cells) or TK-CRBPII-LUC (for CV-1 cells).
(§5) Experiments in Schneider cells were conducted as described in Example 1. Experiments in CV-1 cells were conducted as follows. CV-1 cells were seeded into 48-well sulture dishes and co-transfected with 50 ng of TK-CRBPII-LUC reporter plasmid, 50 ng of CMX-βgal expression plasmid, and 25 ng of expression plasmid for receptor (either CMX-mRXRα, CMX-mRXRβ or CMX-mRXRγ) by the CaPO4 precipitation method, as described by Heyman et al., supra and Clayton supra. […] Luciferase activity was determined as described by Unsworth et al., in Life Sciences 15:1649 (1974).

mouse RXRγ = assay: as above; assay type: cell-based; conditions: Schneider cells and CV-1 cells
Protocol: as §3, §4, §5

mouse RXRβ = assay: as above; assay type: cell-based; conditions: Schneider cells and CV-1 cells
Protocol: as §3, §4, §5

[4] = 36 h, read-out: induction of luciferase reporter above methanol control

## COC(C)(C)CCCC(C)C/C=C/C(C)=C/C(=O)OC(C)C (stereo not drawn) [methoprene, isopropyl (2E,4E)-11-methoxy-3,7,11-trimethyl-2,4-dodecadienoate]
hRXRα [1]
  competition for [3H]9cRA binding to RXRα, in words: unable to displace 9cRA binding at any concentration; also recorded: unable to competitively bind RXR at any concentration
hRXRα [2]; [4]
  fold induction at 100 µM: 80
hRXRα [2]
  activation of RXR (transcription from the reporter construct), in words: activate RXR
[3]
  metabolism within cells: metabolized within cells to several products

## COC(=O)/C=C(\C)CC/C=C(\C)CCC1OC1(C)C (stereo not drawn) [JH III, methyl (2E,6E)-10,11-epoxy-3,7,11-trimethyl-2,6dodecadienoate, reference compound]
hRXRα [2]
  activation of RXR (transcription from the reporter construct), in words: do not activate RXR

## COC(C)(C)CCCC(C)C/C=C/C(C)=C/C(=O)O (stereo not drawn) [methoprene acid]
hRXRα [1]
  competition for [3H]9cRA binding to RXRα, in words: competes well
hRXRα [2]; [4]
  fold induction at 10 µM: 95
GAL4-hRXRα
  activation of transcription with GAL4-RXR, in words: specific for activation of only the GAL4-RXR
GAL4-hRARβ
  activation of transcription with GAL4-RARβ, in words: specific for activation of only the GAL4-RXR
GAL4-hRARγ
  activation of transcription with GAL4-RARγ, in words: specific for activation of only the GAL4-RXR
GAL4-hRARα
  activation of transcription with GAL4-RARα, in words: specific for activation of only the GAL4-RXR
RXR-alpha
  effect of RXR-alpha in the presence of ligand on expression of genes under apolipoprotein AI regulatory elements: strong effect
Mouse RXRα
  response of RXRα (transactivation), in words: respond strongly
Mouse RXRγ
  response of RXRγ (transactivation), in words: respond strongly
Mouse RXRβ
  response of RXRβ (transactivation), in words: responds only weakly

## CC(C)=CCC/C(C)=C/CC/C(C)=C/CO [farnesol, (2E,6E,10E)-3,7,11-trimethyl-2,6,10-dodecatrienol, reference compound]
hRXRα [2]
  activation of RXR (transcription from the reporter construct), in words: do not activate RXR

## CC(/C=C/CC(C)CCCC(C)C)=C\C(=O)O (stereo not drawn) [hydroprene acid]
hRXRα [1]
  competition for [3H]9cRA binding to RXRα, in words: observed to bind RXR
hRXRα [2]; [4]
  fold induction at 100 µM: 81

## C/C(=C\c1ccc(C(=O)O)cc1)c1ccc2c(c1)C(C)(C)CCC2(C)C [TTNPB, (E)-4-[2-(5,6,7,8-tetrahydro-5,5,8,8-tetramethyl-2-napthalenyl)-1-propenyl]benzoic acid, reference compound]
GAL4-hRXRα
  activation of transcription with GAL4-RXR, in words: exclusive response

## CC1=C(/C=C/C(C)=C\C=C\C(C)=C\C(=O)O)C(C)(C)CCC1 [9cRA, 9-cis-retinoic acid, reference compound]
GAL4-hRARβ
  activation of transcription with GAL4-RARβ, in words: can activate transcription
GAL4-hRARγ
  activation of transcription with GAL4-RARγ, in words: can activate transcription
GAL4-hRARα
  activation of transcription with GAL4-RARα, in words: can activate transcription

## CCOC(=O)/C=C(C)/C=C/CC(C)CCCC(C)C (stereo not drawn) [hydroprene, ethyl (2E,4E)-3,7,11-trimethyl-2,4-dodecadienoate]
hRXRα [1]
  competition for [3H]9cRA binding to RXRα, in words: not
hRXRα [2]
  activation of RXR (transcription from the reporter construct), in words: activate RXR
